{"source": "patent US9527852B2", "about": "(Neuropore Therapies, Inc., priority 2012, dated 2016)", "key": {"[1]": {"system": "neuronal cells infected with LV-α-synuclein", "assay": "Calcein assay of membrane integrity (FLIPR)", "assay_type": "cell-based", "details": "for Percent reversal of α-Syn mediated disruption of cell integrity (0.01 μM test compound): calcein assay", "description": "(§1) Next, to ascertain the effects on neuronal activity, cells were infected with LV-α-synuclein for 24 h, treated with Example 2 at 0, 0.01, 0.1 and 1 μM for 24 h in serum free media, loaded with Fluo-4 or calcein, and analyzed by FLIPR assay to determine Ca^2+ and calcein levels. […] Finally, to examine the effects Example 2 on neuronal survival, an MTT cell viability assay was performed. […] All cell free and cell based assays were repeated at least 3 times and experiments were performed blinded to sample identity."}, "[2]": {"biological_target": "Recombinant α-synuclein (Homo sapiens, UniProt P37840)", "assay": "Cell-free α-synuclein aggregation assay (SDS-PAGE, immunoblot)", "assay_type": "biochemical", "details": "10 μM α-synuclein, 37° C. 16 h then 56° C. 6 h, immunoblot (FIG. 1)", "description": "Recombinant α-synuclein (10 μM) are incubated at 37° C. for 16 h and then at 56° C. for 6 h with test compound. […] After incubation, the mixture is run on a SDS-PAGE gel, followed by immunoblot testing with α-synuclein antibodies."}, "[3]": {"biological_target": "T1, α-synuclein (wild type) expressed by lentivirus in a neuronal cell line (Homo sapiens, UniProt P37840)", "T1 construct": "expressed in transfected cells", "assay": "Cell-based α-synuclein aggregation by immunoblot", "details": "soluble and insoluble fractions; test compound 0, 0.1, 1 and 10 μM for 24 h"}, "[4]": {"biological_target": "T1, α-synuclein (wild type) expressed by lentivirus in a neuronal cell line", "assay": "Cell-based α-synuclein accumulation by confocal microscopy", "details": "test compound 0, 0.1, 1 and 10 μM for 24 h (FIG. 2)"}, "[5]": {"system": "Neuronal cells expressing high levels of α-synuclein", "assay": "Neurite outgrowth (Tubulin III antibody)", "assay_type": "cell-based", "details": "0.1 and 1.0 μM (FIG. 3A)"}, "[6]": {"system": "neuronal cells infected with LV-α-synuclein", "assay": "Ca2+ levels by FLIPR assay (Fluo-4)", "assay_type": "cell-based", "details": "0, 0.01, 0.1 and 1 μM for 24 h in serum free media, Fluo-4 (FIG. 3B)", "description": "as §1"}, "[7]": {"system": "neuronal cells", "assay": "MTT cell viability assay", "assay_type": "cell-based", "description": "as §1"}}}
{"smiles": "CCCCc1cc(OCc2c[nH]c3ccccc23)cc(OC(=O)NCCN2CCN(C)CC2)c1", "note": "[Example 1]", "values": [{"measurement": "Percent reversal of α-Syn mediated disruption of cell integrity (0.01 μM test compound)", "setting": "[1]", "result": 26.8, "unit": "%"}]}
{"smiles": "CCCCc1cc(NC(=O)NCCN2CCN(C)CC2)cc(O)c1Cc1c[nH]c2ccccc12", "note": "[Example 2, 1-(4-((1H-Indol-3-yl)methyl)-3-butyl-5-hydroxyphenyl)-3-(2-(4-methylpiperazin-1-yl)ethyl)urea]", "values": [{"measurement": "inhibition of aggregation of α-synuclein into oligomers", "setting": "[2]", "result": "capable of inhibiting the aggregation of α-synuclein into oligomers in a concentration-dependent manner"}, {"measurement": "reduction in the levels of aggregates in the various fractions (immunoblot)", "setting": "[3]", "result": "50-60%"}, {"measurement": "reduction in the level of aggregates in the neuronal cell bodies and neurites (confocal microscopy)", "setting": "[4]", "result": "60-65%"}, {"measurement": "effect on neurite extension and cellular morphology", "setting": "[5]", "result": "ameliorated the deleterious effects on neurite extension and improved cellular morphology"}, {"measurement": "effect on Ca2+ levels", "setting": "[6]", "result": "restored concentrations of Ca^2+ to those in cells not infected with LV-α-synuclein"}, {"measurement": "effect on calcein retention in the cytoplasm", "setting": "[1]; 0, 0.01, 0.1 and 1 μM for 24 h in serum free media (FIG. 3C)", "result": "reversed the effect of α-synuclein on levels of calcein"}, {"measurement": "Percent reversal of α-Syn mediated disruption of cell integrity (0.01 μM test compound)", "setting": "[1]", "result": 34.1, "unit": "%"}, {"measurement": "toxicity in MTT cell viability assay", "setting": "[7]; at 10 μM (FIG. 3D)", "result": "mild toxicity"}, {"measurement": "toxic effects in MTT cell viability assay", "setting": "[7]; doses ranging from 0.1-10 μM (FIG. 3D)", "result": "no toxic effects"}]}
{"smiles": "CCc1cc(NC(=O)NCCN2CCN(C)CC2)ccc1Cc1c[nH]c2ccccc12", "note": "[Example 3, 1-(4-((1H-indol-3-yl)methyl)-3-ethylphenyl)-3-(2-(4-methylpiperazin-1-yl)ethyl)urea]", "values": [{"measurement": "Percent reversal of α-Syn mediated disruption of cell integrity (0.01 μM test compound)", "setting": "[1]", "result": 18.9, "unit": "%"}]}
{"smiles": "CCc1cc(NC(=O)NCCN)ccc1Cc1c[nH]c2ccccc12", "note": "[Example 4, 1-(4-((1H-indol-3-yl)methyl)-3-ethylphenyl)-3-(2-aminoethyl)urea]", "values": [{"measurement": "Percent reversal of α-Syn mediated disruption of cell integrity (0.01 μM test compound)", "setting": "[1]", "result": 25.9, "unit": "%"}]}
{"smiles": "CCc1cc(NC(=O)NCCN2CCNCC2)ccc1Cc1c[nH]c2ccccc12", "note": "[Example 5, 1-(4-((1H-Indol-3-yl)methyl)-3-ethylphenyl)-3-(2-(piperazin-1-yl)ethyl)urea]", "values": [{"measurement": "Percent reversal of α-Syn mediated disruption of cell integrity (0.01 μM test compound)", "setting": "[1]", "result": 89.5, "unit": "%"}]}
{"smiles": "CCc1cc(NC(=O)NCCc2cnc[nH]2)ccc1Cc1c[nH]c2ccccc12", "note": "[Example 6, 1-(2-(1H-imidazol-5-yl)ethyl)-3-(4-((1H-indol-3-yl)methyl)-3-ethylphenyl)urea]", "values": [{"measurement": "Percent reversal of α-Syn mediated disruption of cell integrity (0.01 μM test compound)", "setting": "[1]", "result": 37.5, "unit": "%"}]}
